Assay: Solubility of initiator in NCO/TEGDMA resin
Format: physicochemical
Conditions: not soluble above about 2%; percentages by weight
Excerpt: NCO/TEGDMA is a resin blend described in copending SN 040, 636 and used as illustrated in U.S. patent 4,514,174 and comprises a blend of NCO, the reaction product of hexamethylene diisocyanate (HMDI) and Bis-GMA [drawing 4] , and triethyleneglycol dimethacrylate (TEGDMA). At concentrations above about 2%, the benzoyl di (2,6 dimethylphenyl) phosphonate is not soluble in NCO/-TEGDMA resin. When used with an NCO/-TEGDMA resin in concentrations up to about 2%, however, the resin can be cured to a clear, hard film.

Cc1cccc(C)c1OP(=O)(Oc1c(C)cccc1C)C(=O)c1ccccc1 [Benzoyl di-(2,6-dimethylphenyl) phosphonate]
concentration up to which soluble in NCO/TEGDMA resin: about 2%

Source: patent publication EP0336417A2, “Phosphonate initiators for light cured compositions” (DENTSPLY INTERNATIONAL, INC., priority 1988, dated 1989)
